Measured values as given in patent US20150250786A1, “PYRIMIDINE HYDROXY AMIDE COMPOUNDS AS PROTEIN DEACETYLASE INHIBITORS AND METHODS OF USE THEREOF” (THE TRUSTEES OF THE UNIVERSITY OF PENNSYLVANIA, priority 2012, published 2015).

Legend:
[1] = system: RN46A-B14 serotonergic cell line; test: Histone H3K9 acetylation in RN46A-B14 cells (Western blot); format: cell-based, rat; conditions: 4 hours
[2] = system: RN46A-B14 serotonergic cell line; test: α-tubulin K40 acetylation in RN46A-B14 cells (Western blot); format: cell-based, rat; conditions: for acetylated (lysine 40) fraction of α-tubulin: 4 hours, TSA 0.6 μM, others 2.5 μM
Method: In FIG. 3, it was observed that subchronic treatment, consisting of 5 treatments at 48, 28, 24, 4 and ½ hours before sacrifice, led to greater increase in tubulin acetylation than did chronic treatment of 1 injection/day for 21 days. For cell culture, RN46B cells were treated for with 0.25, 2.5 or 25 μM drug in DMSO for 1, 4 or 24 hours as indicated. Tukey post-hoc analysis: * P=0.01 to 0.05, ** P=0.001-0.01, ***P<0.001 when compared with vehicle treatment.
Results are shown as percent change normalized to the vehicle treatment condition. The horizontal hard line depicts average and the dotted lines depict SEM of the vehicle treated wells. Representative Western blot images are presented. […] Representative Western blot images are presented. […] The drugs (5 mg/kg) were administered subchronically (at 24 h, 4 h and 30 min prior to sacrifice) to HDAC6 KO and WT littermates. The changes in tubulin acetylation were measured in tissue lysates from cortex (ctx), hippocampus (Hpc), dorsal Raphe nucleus (DRN) and cerebellum (cb). The tubulin acetylation levels in drug-treated mice are expressed as percent change of the vehicle-treated mice of the corresponding genotype. The horizontal lines depict the average tubulin acetylation±SEM in the vehicle treated mice. The representative Western blot images show the changes induced by each drug treatment in the hippocampus (left column) and dorsal raphe (right column) of WT and HDAC6 KO mice.
In contrast to the class I isoforms HDAC2 and 3, which are expressed highly and ubiquitously in the mouse brain, HDAC6 mRNA expression appears to be restricted to a small number of brain areas, with highest signal observed in DRN (FIG. 13f). […] No changes in total α-tubulin expression were detected (FIG. 14a).

HDAC3 = HDAC3 (Homo sapiens, UniProt O15379); test: HDAC enzyme assay, HDAC3; conditions: selectivity HDAC6 over HDAC3
Sequence of HDAC3 (O15379 whole entry): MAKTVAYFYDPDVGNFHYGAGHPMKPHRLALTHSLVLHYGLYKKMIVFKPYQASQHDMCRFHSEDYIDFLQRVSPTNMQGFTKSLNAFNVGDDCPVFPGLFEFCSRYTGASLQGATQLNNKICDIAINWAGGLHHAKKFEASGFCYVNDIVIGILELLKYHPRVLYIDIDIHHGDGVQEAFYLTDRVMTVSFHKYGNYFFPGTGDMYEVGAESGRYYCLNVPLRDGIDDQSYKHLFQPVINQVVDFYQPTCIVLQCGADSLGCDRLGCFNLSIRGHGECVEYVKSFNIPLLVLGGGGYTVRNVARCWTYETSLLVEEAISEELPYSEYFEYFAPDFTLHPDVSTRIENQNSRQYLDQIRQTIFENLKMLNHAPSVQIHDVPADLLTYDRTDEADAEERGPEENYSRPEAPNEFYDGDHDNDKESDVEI
Sequence of HDAC3 (Q9Y618 395-489 partner limits assumed): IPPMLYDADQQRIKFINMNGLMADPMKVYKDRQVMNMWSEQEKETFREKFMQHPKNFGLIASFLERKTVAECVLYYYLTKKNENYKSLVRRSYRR

HDAC2 = HDAC2 (Homo sapiens, UniProt Q92769); test: HDAC enzyme assay, HDAC2; conditions: selectivity HDAC6 over HDAC2
Sequence of HDAC2 (Q92769 whole entry): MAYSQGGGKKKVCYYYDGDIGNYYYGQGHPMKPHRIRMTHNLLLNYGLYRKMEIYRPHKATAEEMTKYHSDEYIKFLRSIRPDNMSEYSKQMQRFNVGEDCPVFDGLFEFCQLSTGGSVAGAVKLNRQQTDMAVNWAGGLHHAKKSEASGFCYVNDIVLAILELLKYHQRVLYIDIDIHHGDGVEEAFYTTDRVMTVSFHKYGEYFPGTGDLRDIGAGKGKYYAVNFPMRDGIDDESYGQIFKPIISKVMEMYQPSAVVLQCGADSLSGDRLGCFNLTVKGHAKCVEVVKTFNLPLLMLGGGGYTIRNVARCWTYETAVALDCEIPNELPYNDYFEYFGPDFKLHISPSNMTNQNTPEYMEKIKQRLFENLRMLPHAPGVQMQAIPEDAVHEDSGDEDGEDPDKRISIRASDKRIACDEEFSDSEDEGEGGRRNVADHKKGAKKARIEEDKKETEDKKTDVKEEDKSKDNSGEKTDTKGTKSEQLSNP

HDAC1 = HDAC1 (Homo sapiens, UniProt Q13547); test: HDAC enzyme assay, HDAC1; conditions: selectivity HDAC6 over HDAC1
Sequence of HDAC1 (Q13547 whole entry): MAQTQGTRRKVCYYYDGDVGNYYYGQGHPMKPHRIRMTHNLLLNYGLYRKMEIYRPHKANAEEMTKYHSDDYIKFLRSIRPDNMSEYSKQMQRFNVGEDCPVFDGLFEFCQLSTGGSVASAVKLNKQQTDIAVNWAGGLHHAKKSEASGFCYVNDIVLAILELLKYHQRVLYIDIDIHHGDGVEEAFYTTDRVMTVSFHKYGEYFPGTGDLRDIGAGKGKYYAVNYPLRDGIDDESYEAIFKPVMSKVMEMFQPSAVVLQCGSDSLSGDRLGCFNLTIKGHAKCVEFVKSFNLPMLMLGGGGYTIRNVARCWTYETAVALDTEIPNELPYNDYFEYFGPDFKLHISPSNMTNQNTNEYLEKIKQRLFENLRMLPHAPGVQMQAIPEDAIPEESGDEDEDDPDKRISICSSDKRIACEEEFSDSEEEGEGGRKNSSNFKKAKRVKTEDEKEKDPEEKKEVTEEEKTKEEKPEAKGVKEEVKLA

[3] = system: histone H3 lysine 9 acetylation; test: Histone H3K9 acetylation in vivo (Western blot, ChIP); parameters: species or system mouse; conditions: hippocampus; repeated i.p.; compound 73 5 mg/kg, sodium butyrate 1.2 g/kg
[4] = system: α-tubulin acetylation in mouse whole brain lysates; test: α-tubulin acetylation in whole brain lysates after single i.p. administration; format: in vivo; conditions: compound 73 5 mg/kg, compound 101 50 mg/kg, tubastatin A 10 mg/kg, 30 min, 1 h, 4 h
mice [5] = test: Open-field test; format: in vivo, mouse; conditions: acute; compounds 73, 101 50 mg/kg; tubastatin A 10 mg/kg
[6] = Pharmacokinetics and brain bio-distribution in mice; format: in vivo, mouse
Method: […] Plasma samples were taken from all mice upon sacrifice. Brain samples were taken from the mice sacrificed at 5 and 15 minutes and 1 and 4 hours. The brain samples were homogenized in PBS and centrifuged at 14000 rpm for 5 minutes. The supernatant from the brain homogenate and the plasma samples were injected onto a LC/MS/MS for analysis. The compound level in the samples was determined by a standard curve in the appropriate matrix. Pharmacokinetic parameters were determined from the raw data by WinNonLin.

[7] = system: α-tubulin acetylation in heart; test: α-tubulin acetylation in heart after single systemic administration; format: in vivo, mouse; conditions: 10 mg/kg
Method: The changes were significant at 30 minutes (F3,13=163.4, P<0.0001), 1 hour (F3,13=163.9, P<0.0001) and 4 hours (F3,14=4.703, P=0.0179) after the administrations.

mice [8] = test: Chronic social defeat (CSD) and social interaction test; format: in vivo, mouse; conditions: after CSD; fluoxetine 20 mg/kg, compound 73 5 mg/kg, compound 101 50 mg/kg
Method: Additionally, when combined with a dose of Citalopram with lower activity, these compounds seemed to have an additive effect (See FIG. 10). The dose of Citalopram chosen for this experiment was based on literature stating 2 mg/kg should be subactive, but this dose was found still showing an effect. Mice then underwent chronic social defeat stress, in which the mice are exposed to an aggressive resident mouse for 5 minutes daily for 10 days and are then tested on the 11th day in the social interaction test. Mice treated with vehicle for 20 total days, beginning 10 days before the defeat, show reduced time spent in the interaction zone when a target mouse is present when compared with control mice. […] The percent of mice found to be resilient, defined as spending more time in the interaction zone than the lowest control (i.e. ˜52 s), is higher in HDAC6 inhibitor groups. All behavior testing done using NIH Swiss mice, age 6-10 weeks. Tukey post-hoc analysis: * P=0.01 to 0.05, ** P=0.001-0.01, ***P<0.001 compared with vehicle treated mice.
The effects were observed 30 minutes after acute 50 mg/kg i.p. injection, but not for the lower dose (5 mg/kg). Combination of subactive doses of the HDAC6 selective inhibitors (5 mg/kg) and citalopram (0.5 mg/kg) produced robust potentiation of anti-immobility activity (n=8-29 per condition). […] No difference was observed between HDAC6 WT and KO when treated with the vehicle (n=6-15 per condition). FIG. 16c is a timeline showing treatment period, social defeat and social interaction (SI) testing.
A pro-resilient phenotype in the mouse CSD paradigm after serotonin-selective KO of HDAC6 was previously reported (Espallergues et al, 2012). Whether a chronic pharmacological inhibition of HDAC6 can replicate that phenotype is studied. […] On day 21, 24 h after the last injection, the mice were tested in the social interaction test. […] Significant effects were also observed when data was evaluated in terms of proportion of mice reaching criterion for resiliency.

mice [9] = test: Elevated plus maze (EPM); format: in vivo, mouse; conditions: acute administration

CC(/C=C/C(=O)NO)=C\[C@@H](C)C(=O)c1ccc(N(C)C)cc1 [TSA, trichostatin A, reference compound]
increase in acetylation of histone H3 at lysine 9 ([1]; TSA 0.6 μM): 94%
acetylated (lysine 40) fraction of α-tubulin [2]: increases

O=C(NO)c1cnc(NC2(c3ccccc3Cl)CC2)nc1 [Compound 90]
HDAC3 fold versus HDAC6 (in brackets) (HDAC3): (30.2x)
HDAC2 fold versus HDAC6 (in brackets) (HDAC2): (26.2x)
HDAC1 fold versus HDAC6 (in brackets) (HDAC1): (19.9x)

Cc1ccc(C2(Nc3ncc(C(=O)NO)cn3)CC2)cc1 [Compound 93]
HDAC3 fold versus HDAC6 (in brackets) (HDAC3): (51x)
HDAC2 fold versus HDAC6 (in brackets) (HDAC2): (34.7x)
HDAC1 fold versus HDAC6 (in brackets) (HDAC1): (25.9x)

CCCC(=O)[O-].[Na+] [sodium butyrate, reference compound]
histone H3K9 acetylation enrichment at promoter DNA (cFOS, BDNF promoter 4), ChIP [3]: increases in enrichment

O=C(NO)c1cnc(NC2(c3ccccc3)CCCCC2)nc1 [Compound 84]
HDAC3 fold versus HDAC6 (in brackets) (HDAC3): (613x)
HDAC2 fold versus HDAC6 (in brackets) (HDAC2): (403.4x)
HDAC1 fold versus HDAC6 (in brackets) (HDAC1): (302.2x)

CN1CCc2c(c3ccccc3n2Cc2ccc(C(=O)NO)cc2)C1 [Tubastatin A, reference compound]
α-tubulin acetylation in whole brain lysates [4]: did not significantly change
exploratory activity in novel open-field arena (mice [5]): did not exhibit changes
30 min plasma concentration (ng/ml) - 5 mg/kg ([6]; 5 mg/kg): 278 ng/mL
Cmax ([6]; mice, acute i.p. dosing): 496 ng/mL
T½ plasma ([6]; mice, acute i.p. dosing): 2 h
plasmatic half-life ([6]; mouse, in vivo): 2 h
change in histone H3K9 acetylation ([1]; 2.5 μM): no significant change
increase in α-tubulin acetylation in tissue culture [2]: about 400%
acetylated (lysine 40) fraction of α-tubulin [2]: increases
increase of α-tubulin acetylation in heart [7]: 268%

O=C(NO)c1cnc(NC2(c3ccc(F)cc3)CCCCC2)nc1 [Compound 100]
HDAC3 fold versus HDAC6 (in brackets) (HDAC3): (1428.4x)
HDAC2 fold versus HDAC6 (in brackets) (HDAC2): (504.7x)
HDAC1 fold versus HDAC6 (in brackets) (HDAC1): (339.9x)

O=C(NO)c1cnc(NC2(c3ccccc3C(F)(F)F)CC2)nc1 [Compound 91]
HDAC3 fold versus HDAC6 (in brackets) (HDAC3): (169.4x)
HDAC2 fold versus HDAC6 (in brackets) (HDAC2): (130.2x)
HDAC1 fold versus HDAC6 (in brackets) (HDAC1): (72.3x)

O=C(NO)c1cnc(NC2(c3ccc(F)cc3)CC2)nc1 [Compound 81]
HDAC3 fold versus HDAC6 (in brackets) (HDAC3): (46.4x)
HDAC2 fold versus HDAC6 (in brackets) (HDAC2): (30.2x)
HDAC1 fold versus HDAC6 (in brackets) (HDAC1): (18.3x)

COc1ccc(C2(Nc3ncc(C(=O)NO)cn3)CC2)cc1 [Compound 97]
HDAC3 fold versus HDAC6 (in brackets) (HDAC3): (16.4x)
HDAC2 fold versus HDAC6 (in brackets) (HDAC2): (12.1x)
HDAC1 fold versus HDAC6 (in brackets) (HDAC1): (8.3x)

O=C(NO)c1cnc(NC2(c3ccccc3)CCCC2)nc1 [Compound 88]
HDAC3 fold versus HDAC6 (in brackets) (HDAC3): (679.1x)
HDAC2 fold versus HDAC6 (in brackets) (HDAC2): (296.1x)
HDAC1 fold versus HDAC6 (in brackets) (HDAC1): (215.2x)

CNCCC(Oc1ccc(C(F)(F)F)cc1)c1ccccc1 (stereo not drawn) [fluoxetine, reference compound]
percentage of resilient mice (mice [8]): 60%

CNC1=Nc2ccc(Cl)cc2C(c2ccccc2)=[N+]([O-])C1 [CDP, reference compound]
behavioral changes / time in the open arms of the maze (mice [9]): dramatically increased
